Test results as given in ChEMBL document CHEMBL5050844 (2019).

Experiments:
[1] = Induction of anti-CD3/CD28 antibodies-stimulated human T cell activation at 4 uM assessed fold increase in IL-2 secretion measured by ELISA assay; assay type: functional, T cell line
[2] = Induction of anti-CD3/CD28 antibodies-stimulated human T cell activation at 1 uM assessed fold increase in IL-2 secretion measured by ELISA assay; assay type: functional, T cell line
[3] = Induction of anti-CD3 antibodies-stimulated human T cell activation at 1 uM assessed fold increase in IL-2 secretion measured by ELISA assay; assay type: functional, T cell line; also: reference of the scale not given here
[4] = Induction of anti-CD3/CD28 antibodies-stimulated human T cell activation at 4 uM assessed fold increase in CD25 expression measured by ELISA assay; assay type: functional, T cell line
[5] = Induction of anti-CD3/CD28 antibodies-stimulated human CD4+ T cell activation at 10 uM assessed fold increase in CD69 expression measured by flow cytometry analysis; assay type: functional, T cell line
[6] = Induction of anti-CD3/CD28 antibodies-stimulated human CD4+ T cell activation at 1.11 uM assessed fold increase in CD69 expression measured by flow cytometry analysis; assay type: functional, T cell line
[7] = Induction of anti-CD3/CD28 antibodies-stimulated human CD4+ T cell activation at 10 uM assessed fold increase in cell proliferation measured by flow cytometry analysis; assay type: functional, T cell line
[8] = Induction of anti-CD3/CD28 antibodies-stimulated human CD8+ T cell activation at 10 uM assessed fold increase in CD69 expression measured by flow cytometry analysis; assay type: functional, T cell line
[9] = Induction of anti-CD3/CD28 antibodies-stimulated human CD8+ T cell activation at 1.11 uM assessed fold increase in CD69 expression measured by flow cytometry analysis; assay type: functional, T cell line
[10] = Induction of anti-CD3/CD28 antibodies-stimulated human CD8+ T cell activation at 1.11 uM assessed fold increase in cell proliferation measured by flow cytometry analysis; assay type: functional, T cell line
[11] = Induction of anti-CD3 antibodies-stimulated human CD4+ T cell activation at 10 uM assessed fold increase in CD69 expression measured by flow cytometry analysis; assay type: functional, T cell line; also: reference of the scale not given here
[12] = Induction of anti-CD3 antibodies-stimulated human CD8+ T cell activation at 10 uM assessed fold increase in CD69 expression measured by flow cytometry analysis; assay type: functional, T cell line; also: reference of the scale not given here
[13] = Induction of anti-CD3 antibodies-stimulated human CD8+ T cell activation at 1.11 uM assessed fold increase in CD69 expression measured by flow cytometry analysis; assay type: functional, T cell line; also: reference of the scale not given here
[14] = Induction of anti-CD3 antibodies-stimulated human CD8+ T cell activation at 10 uM assessed fold increase in cell proliferation measured by flow cytometry analysis; assay type: functional, T cell line; also: reference of the scale not given here
[15] = Induction of anti-CD3 antibodies-stimulated human CD8+ T cell activation at 1.11 uM assessed fold increase in cell proliferation measured by flow cytometry analysis; assay type: functional, T cell line; also: reference of the scale not given here
[16] = Induction of anti-CD3/CD28 antibodies-stimulated human T cell activation at 10 uM assessed fold increase in GM-CSF secretion measured by ELISA assay; assay type: functional, T cell line
[17] = Induction of anti-CD3/CD28 antibodies-stimulated human T cell activation at 1.11 uM assessed fold increase in GM-CSF secretion measured by ELISA assay; assay type: functional, T cell line
[18] = Induction of anti-CD3 antibodies-stimulated human T cell activation at 10 uM assessed fold increase in GM-CSF secretion measured by ELISA assay; assay type: functional, T cell line; also: reference of the scale not given here
[19] = Induction of anti-CD3 antibodies-stimulated human T cell activation at 1.11 uM assessed fold increase in GM-CSF secretion measured by ELISA assay; assay type: functional, T cell line; also: reference of the scale not given here
[20] = Induction of anti-CD3/CD28 antibodies-stimulated human T cell activation at 1.11 uM assessed fold increase in TNF-alpha secretion measured by ELISA assay; assay type: functional, T cell line
[21] = Induction of anti-CD3 antibodies-stimulated human T cell activation at 10 uM assessed fold increase in TNF-alpha secretion measured by ELISA assay; assay type: functional, T cell line; also: reference of the scale not given here
[22] = Induction of anti-CD3 antibodies-stimulated human T cell activation at 1.11 uM assessed fold increase in TNF-alpha secretion measured by ELISA assay; assay type: functional, T cell line; also: reference of the scale not given here
[23] = Induction of anti-CD3/CD28 antibodies-stimulated human T cell activation at 1.11 uM assessed fold increase in IFN-gamma secretion measured by ELISA assay; assay type: functional, T cell line
[24] = Induction of anti-CD3 antibodies-stimulated human T cell activation at 1.11 uM assessed fold increase in IFN-gamma secretion measured by ELISA assay; assay type: functional, T cell line; also: reference of the scale not given here
[25] = Induction of allogenic human T cell activation at 3 uM assessed fold increase in cell proliferation; assay type: functional, T cell line
[26] = Induction of anti-CD3 antibodies-stimulated human exhausted T cell activation assessed fold increase in IFN-gamma secretion measured by ELISA assay; assay type: functional, T cell line; also: reference of the scale not given here
[27] = Induction of anti-CD3 antibodies-stimulated human exhausted T cell activation assessed fold increase in IL-2 secretion measured by ELISA assay; assay type: functional, T cell line; also: reference of the scale not given here
[28] = Induction of anti-CD3 antibodies-stimulated human exhausted T cell activation assessed fold increase in GM-CSF secretion measured by ELISA assay; assay type: functional, T cell line; also: reference of the scale not given here
[29] = Induction of anti-CD3 antibodies-stimulated human exhausted CD4+ T cell activation assessed fold increase in CTLA4 expression measured by flow cytometry analysis; assay type: functional, T cell line; also: reference of the scale not given here
[30] = Induction of anti-CD3/CD28 antibodies-stimulated human anergic T cell activation at 10 uM assessed fold increase in IFN-gamma secretion measured by ELISA assay; assay type: functional, T cell line
[31] = Induction of anti-CD3/CD28 antibodies-stimulated human anergic T cell activation at 0.37 uM assessed fold increase in IFN-gamma secretion measured by ELISA assay; assay type: functional, T cell line
B cell = test: Induction of anti-IgM-stimulated human CD20+ B cell activation at 10 to 1000 uM assessed as increase in CD69 expression measured as mean fluorescence intensity AUC by flow cytometry analysis; assay type: functional, cell-based; conditions: dose 10-1000 µM
[32] = Induction of activation of human CD56+ CD3- NK cells co-cultured with human K562 cells in 1:1 ratio and assessed as increase in IFN-gamma secretion at 10 uM measured by ELISA assay; assay type: functional, Natural killer cell
[33] = Induction of activation of human CD56+ CD3- NK cells co-cultured with human K562 cells in 1:1 ratio and assessed as increase in TNF-alpha secretion at 10 uM measured by ELISA assay; assay type: functional, Natural killer cell
[34] = Induction of activation of human CD56+ CD3- NK cells co-cultured with human K562 cells in 1:1 ratio and assessed as increase in IFN-gamma secretion at 2.5 uM measured by ELISA assay; assay type: functional, Natural killer cell
[35] = Induction of activation of human CD56+ CD3- NK cells co-cultured with human K562 cells in 1:1 ratio and assessed as increase in IFN-gamma secretion at 0.625 uM measured by ELISA assay; assay type: functional, Natural killer cell
[36] = Induction of activation of human CD56+ CD3- NK cells co-cultured with human K562 cells in 1:1 ratio and assessed as increase in TNF-alpha secretion at 2.5 uM measured by ELISA assay; assay type: functional, Natural killer cell
[37] = Induction of activation of human CD56+ CD3- NK cells co-cultured with human K562 cells in 1:1 ratio and assessed as increase in TNF-alpha secretion at 0.625 uM measured by ELISA assay; assay type: functional, Natural killer cell

| Structure (SMILES) | fold change (FC) [1] | fold change (FC) [2] | fold change (FC) [3] | fold change (FC) [4] | fold change (FC) [5] | fold change (FC) [6] | fold change (FC) [7] | fold change (FC) [8] | fold change (FC) [9] | fold change (FC) [10] | fold change (FC) [11] | fold change (FC) [12] | fold change (FC) [13] | fold change (FC) [14] | fold change (FC) [15] | fold change (FC) [16] | fold change (FC) [17] | fold change (FC) [18] | fold change (FC) [19] | fold change (FC) [20] | also measured |
| --- | --- | --- | --- | --- | --- | --- | --- | --- | --- | --- | --- | --- | --- | --- | --- | --- | --- | --- | --- | --- | --- |
| Cn1cnnc1C(F)(F)[C@](C)(F)c1cccc(N2Cc3c(cc(C(=O)N4CC[C@H](O)C4)cc3C(F)(F)F)C2=O)c1 | >=7.5 | 2.51 | 0.101 | 1.31 | 1.401 | 1.201 | >4 | 1.201 | <=1.2 | <=2 | >1.601 | 1.201 | <=1.2 | >4 | <=2 | 2.01 | 1.51 | 2.01 | <=1.5 | <=1.5 | fold change (FC) [21]: 1.51; fold change (FC) [22]: 2.01; fold change (FC) [23]: <=2; fold change (FC) [24]: <=2; fold change (FC) [25]: <=2; fold change (FC) [26]: <=1.4; fold change (FC) [27]: 2.51; fold change (FC) [28]: <=1.4; fold change (FC) [29]: <=1.4; fold change (FC) [30]: >4.01; fold change (FC) [31]: <=2.5; AUC (B cell): < 0.5; fold change (FC) [32]: <=1; fold change (FC) [33]: 1.01; fold change (FC) [34]: 1.01; fold change (FC) [35]: 1.01; fold change (FC) [36]: 1.01; fold change (FC) [37]: 1.01 |
| C[C@H](Cc1nncn1C)c1cccc(N2Cc3c(cc(CN4CC[C@](C)(O)C4)cc3C(F)(F)F)C2=O)c1 | >=7.5 | 5 | 0.101 | 1.31 | 1.401 | 1.401 | >4 | 1.201 | 1.201 | 3.01 | >1.601 | 1.401 | 1.201 | >4 | >4 | >4 | 2.01 | >4 | 2.01 | 2.01 | fold change (FC) [21]: 2.01; fold change (FC) [22]: <=1.5; fold change (FC) [23]: 3.01; fold change (FC) [24]: <=2; fold change (FC) [25]: 2.01; fold change (FC) [26]: >1.61; fold change (FC) [27]: 2.51; fold change (FC) [28]: >1.61; fold change (FC) [29]: 1.41; fold change (FC) [30]: >4.01; fold change (FC) [31]: <=2.5; AUC (B cell): 0.5; fold change (FC) [32]: >=5; fold change (FC) [33]: 2.01; fold change (FC) [34]: 2.01; fold change (FC) [35]: 2.01; fold change (FC) [36]: 2.01; fold change (FC) [37]: 1.01 |
| Cn1cnnc1[C@@H]1C[C@@H]1c1cccc(N2Cc3c(ccnc3C(F)(F)F)C2=O)c1 | 1.01 | 1.01 | 0.051 | 1.01 | 1.401 | <=1.2 | >4 | 1.201 | <=1.2 | <=2 | <=1.2 | <=1.2 | <=1.2 | <=2 | <=2 | 2.01 | <=1.5 | <=1.5 | <=1.5 | <=1.5 | fold change (FC) [21]: 1.51; fold change (FC) [22]: <=1.5; fold change (FC) [23]: <=2; fold change (FC) [24]: <=2; fold change (FC) [25]: <=2; fold change (FC) [26]: <=1.4; fold change (FC) [27]: <=2.5; fold change (FC) [28]: <=1.4; fold change (FC) [29]: <=1.4; fold change (FC) [30]: 2.51; fold change (FC) [31]: <=2.5; AUC (B cell): 1.01; fold change (FC) [32]: 2.01; fold change (FC) [33]: 1.01; fold change (FC) [34]: <=1; fold change (FC) [35]: 1.01; fold change (FC) [36]: <=1; fold change (FC) [37]: <=1 |
| Cn1cnnc1CC1(c2cccc(NC(=O)c3nc4c(C(F)(F)F)cccc4[nH]3)c2)COC1 | >=7.5 | 5 | 0.101 | 1.51 | >1.601 | 1.401 | >4 | 1.201 | 1.201 | 3.01 | >1.601 | 1.401 | 1.201 | >4 | >4 | >4 | 1.51 | 2.01 | <=1.5 | 1.51 | fold change (FC) [21]: 1.51; fold change (FC) [22]: 1.51; fold change (FC) [23]: >4; fold change (FC) [24]: <=2; fold change (FC) [25]: <=2; fold change (FC) [26]: 1.41; fold change (FC) [27]: >3.01; fold change (FC) [28]: <=1.4; fold change (FC) [29]: >1.61; fold change (FC) [30]: >4.01; fold change (FC) [31]: <=2.5; AUC (B cell): 0.5; fold change (FC) [32]: 2.01; fold change (FC) [33]: 2.01; fold change (FC) [34]: 1.01; fold change (FC) [35]: 2.01; fold change (FC) [36]: 1.01; fold change (FC) [37]: 1.01 |
